In experiment [1] the target is T1, Rat GnRH Receptor (Rattus norvegicus, UniProt P30969).
T1 construct: from tissue; host or cells: anterior pituitary of male Wistar rats (8 weeks old), membrane fraction
T1 sequence (P30969 1-327): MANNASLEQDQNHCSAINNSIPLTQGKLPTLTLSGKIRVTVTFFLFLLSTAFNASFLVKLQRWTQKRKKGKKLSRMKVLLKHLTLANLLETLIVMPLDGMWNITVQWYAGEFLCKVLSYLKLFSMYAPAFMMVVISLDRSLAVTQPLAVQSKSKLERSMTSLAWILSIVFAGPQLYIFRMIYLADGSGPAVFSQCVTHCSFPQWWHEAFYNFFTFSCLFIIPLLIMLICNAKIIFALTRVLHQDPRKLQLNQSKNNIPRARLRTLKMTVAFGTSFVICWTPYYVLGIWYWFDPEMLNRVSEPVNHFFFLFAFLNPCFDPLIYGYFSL
As to the kind of experiment: ^125 I-leuprolerin binding inhibition, rat anterior pituitary membrane fraction. Set-up: species or system rat (Wistar). The conditions noted are these: 4° C. for 90 minutes, read-out: GnRH-receptor binding inhibitory activity (IC50, μM) Rat. The method, then: A tube was filled with 10 μl of an aqueous solution of leuprolerin (3×10^4 M) and lactoperoxidase (0.01 mg/ml) followed by addition of 10 μl of Na^125 I solution (37 MBq). After stirring, 10 μl of 0.001% H2 O2 was added and the reaction was conducted at room temperature for 20 minutes. The reaction was stopped by adding 700 μl of 0.05% TFA and the reaction mixture was subjected to reversed-phase HPLC under the conditions set forth below. ^125 I-leuprolerin was eluted with a retention time of 26-27 minutes. Forty rats (8 weeks old, male) of Wistar strain were decapitated under no anesthesia and the anterior pituitary isolated from each animal was washed with an ice-cooled homogenate buffer (25 mM Tris (tris(hydroxylmethyl)aminomethane)-HCl, 0.3M sucrose, 1 mM EGTA (ethylene-bis(oxyethylenenitrilo)tetraacetic acid), 0.25 mM PMSF (phenylmethylsulfonyl fluoride), 10 U/ml aprotinin, 1 μg/ml pepstatin, 20 μg/ml leupeptin, 100 μg/ml phosphoramidon, 0.03% sodium azide; pH 7.5). The anterior pituitary was suspended in 2 ml of the same homogenate buffer as above and homogenized using a Polytron homogenizer. The homogenate thus prepared was centrifuged at 700 xg for 15 minutes and the supernatant was transferred to an ultracentrifuge cuvette and further centrifuged at 100,000 xg for 1 hour to provide a membrane fraction pellet. This pellet was suspended in 2 ml of an assay buffer (25 mM Tris-HCl, 1 mM ethylenediaminetetraacetic acid (EDTA), 0.1% bovine serum albumin (BSA), 0.25 mM PMSF, 1 μg/ml pepstatin, 20 μg/ml leupeptin, 100 μg/ml phosphoramidon, 0.03% sodium azide; pH 7.5) and centrifuged at 100,000 xg for 1 hour. The membrane fraction recovered as a pellet was resuspended in 10 ml of the same assay buffer as above, distributed into vials, preserved at -80° C., and reconstituted before use. The rat and human membrane fractions prepared under (B) and (D) were respectively diluted with the assay buffer to make 200 μg/ml each and 188 μl aliquots of each dilution were distributed into tubes. The bovine membrane fraction prepared under (C) was diluted with the assay buffer to make 750 μg/ml and 188 μl aliquots of the dilution were distributed into tubes. When the rat anterior pituitary membrane fraction was used, 2 μl of 0.1 mM compound/60% dimethyl sulfoxide (DMSO) and 10 μl of 38 nM ^125 I-leuprolerin were concurrently added. […] For determination of maximum binding, a reaction mixture was prepared by adding 2 μl of 60% DMSO and 10 μl of 38 nM ^125 I-leuprolerin. For determination of non-specific binding, a reaction mixture was prepared using 2 μl of 100 μM leuprolerin/60% DMSO and 10 μl of […] ^125 I-leuprolerin. When the rat and bovine anterior pituitary membrane fractions were used, each reaction was carried out at 4° C. for 90 minutes. On the other hand, when the human GnRH receptor-expressed CHO cell membrane fraction was used, the reaction was conducted at 25° C. for 60 minutes. After completion of the reaction, the reaction mixture was suction-filtered through a polyethyleneimine-treated Whatman glass filter (GF-F) [trademark;whatman]. After filtration, the radioactivity of the residual ^125 I-leuprolerin on the filter was measured using a γ-counter. The computation formula of (TB-SB)/(TB-NSB)×100 (SB=radioactivity bound in the presence of the test compound, TB=maximum amount of radioactivity bound, NSB=amount of radioactivity nonspecifically bound) was calculated to find the binding inhibition rate for the test compound. Moreover, the inhibition rate was determined by varying the concentration of each test compound and the concentration of the compound causing 50% inhibition of binding (IC50 value) was calculated by Hill plot.

Experiment [2] addresses T2, Human GnRH receptor (Homo sapiens, UniProt P30968).
T2 construct: expressed in transfected cells; host or cells: CHO (Chinese hamster ovary) cells, membrane fraction
T2 sequence (P30968 1-328): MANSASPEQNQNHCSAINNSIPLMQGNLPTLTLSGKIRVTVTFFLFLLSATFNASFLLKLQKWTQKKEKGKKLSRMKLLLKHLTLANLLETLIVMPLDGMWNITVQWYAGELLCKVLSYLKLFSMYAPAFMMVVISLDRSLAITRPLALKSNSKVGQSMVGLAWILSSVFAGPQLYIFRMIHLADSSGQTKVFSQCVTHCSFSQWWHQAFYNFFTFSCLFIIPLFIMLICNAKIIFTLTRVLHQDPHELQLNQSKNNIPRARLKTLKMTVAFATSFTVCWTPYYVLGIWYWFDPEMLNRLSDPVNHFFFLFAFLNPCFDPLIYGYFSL
Kind of experiment: ^125 I-leuprolerin binding inhibition, human GnRH receptor-expressed CHO cell membrane fraction. Particulars: 25° C. for 60 minutes, read-out: GnRH-receptor binding inhibitory activity (IC50, μM) Man. The method, then:
A tube was filled with 10 μl of an aqueous solution of leuprolerin (3×10^4 M) and lactoperoxidase (0.01 mg/ml) followed by addition of 10 μl of Na^125 I solution (37 MBq). After stirring, 10 μl of 0.001% H2 O2 was added and the reaction was conducted at room temperature for 20 minutes. The reaction was stopped by adding 700 μl of 0.05% TFA and the reaction mixture was subjected to reversed-phase HPLC under the conditions set forth below. ^125 I-leuprolerin was eluted with a retention time of 26-27 minutes. […] To the sediment was added 10 ml of a cell homogenate buffer (10 mM NaHCO3, 5 mM EDTA, pH 7.5) and the mixture was homogenized using a Polytron homogenizer. The homogenate was centrifuged at 400 xg for 15 minutes and the supernatant was transferred to an ultracentrifuge cuvette and centrifuged at 100,000 xg for 1 hour to prepare a membrane fraction pellet. This pellet was suspended in 2 ml of the assay buffer and further centrifuged at 100,000 xg for 1 hour. The membrane fraction recovered as a pellet was resuspended in 20 ml of the assay buffer, distributed into vials, preserved at -80° C., and reconstituted before use. The rat and human membrane fractions prepared under (B) and (D) were respectively diluted with the assay buffer to make 200 μg/ml each and 188 μl aliquots of each dilution were distributed into tubes. The bovine membrane fraction prepared under (C) was diluted with the assay buffer to make 750 μg/ml and 188 μl aliquots of the dilution were distributed into tubes. When the rat anterior pituitary membrane fraction was used, 2 μl of 0.1 mM compound/60% dimethyl sulfoxide (DMSO) and 10 μl of 38 nM ^125 I-leuprolerin were concurrently added. […] For determination of maximum binding, a reaction mixture was prepared by adding 2 μl of 60% DMSO and 10 μl of 38 nM ^125 I-leuprolerin. For determination of non-specific binding, a reaction mixture was prepared using 2 μl of 100 μM leuprolerin/60% DMSO and 10 μl of […] ^125 I-leuprolerin. When the rat and bovine anterior pituitary membrane fractions were used, each reaction was carried out at 4° C. for 90 minutes. On the other hand, when the human GnRH receptor-expressed CHO cell membrane fraction was used, the reaction was conducted at 25° C. for 60 minutes. After completion of the reaction, the reaction mixture was suction-filtered through a polyethyleneimine-treated Whatman glass filter (GF-F) [trademark;whatman]. After filtration, the radioactivity of the residual ^125 I-leuprolerin on the filter was measured using a γ-counter. The computation formula of (TB-SB)/(TB-NSB)×100 (SB=radioactivity bound in the presence of the test compound, TB=maximum amount of radioactivity bound, NSB=amount of radioactivity nonspecifically bound) was calculated to find the binding inhibition rate for the test compound. Moreover, the inhibition rate was determined by varying the concentration of each test compound and the concentration of the compound causing 50% inhibition of binding (IC50 value) was calculated by Hill plot.

Structures can show the parent of a compound that is named as a salt.

Experimental findings from patent US5633248A, “Amine compounds, their production and use” (priority 1994, dated 1997) are described below.

As usually defined, the IC50 is the concentration that inhibits the measured activity by half.

Take `COc1cc2c(cc1OC)CC1(CCCCN1CCCC(CCCNC(=O)Cc1ccc3c(c1)OCO3)(c1ccccc1)c1ccccc1)CC2` (centres unmarked) [II-60, 3,4-Dihydro-6,7-dimethoxy-1'-{4,4-diphenyl-7-[(3,4-methylenedioxyphenylacetyl)amino]heptyl}spiro[naphthalene-2(1H),2'-piperidine] hydrochloride]: the IC50 in experiment [1] was 0.002 µM; in experiment [2] it was 0.1 µM.
